The values below come from patent publication US20130184222A1, “[…] ACTIVE COMPOSITIONS AND THEIR METHODS OF USE” (AGIOS PHARMACEUTICALS, INC, priority 2010, published 2013).

Broadly, the IC50 is the point on the concentration scale where inhibition reaches its midpoint.

Some results are limits rather than exact numbers.

Chain of IDH1 R132H (O75874 whole entry R132H): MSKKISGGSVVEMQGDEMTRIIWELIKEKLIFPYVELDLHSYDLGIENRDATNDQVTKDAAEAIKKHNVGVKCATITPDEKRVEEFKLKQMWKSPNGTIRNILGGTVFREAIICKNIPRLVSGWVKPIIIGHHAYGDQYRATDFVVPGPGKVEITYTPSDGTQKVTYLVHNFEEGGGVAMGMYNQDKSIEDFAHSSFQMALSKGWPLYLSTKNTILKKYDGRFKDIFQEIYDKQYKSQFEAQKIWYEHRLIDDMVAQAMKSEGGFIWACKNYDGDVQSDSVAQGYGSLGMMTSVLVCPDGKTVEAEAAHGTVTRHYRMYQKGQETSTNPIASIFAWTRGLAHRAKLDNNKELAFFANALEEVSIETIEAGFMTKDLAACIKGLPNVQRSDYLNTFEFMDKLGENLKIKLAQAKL

This experiment has as its target IDH1 R132H (Homo sapiens, UniProt O75874, R132H). The experiment can be described thus: In vitro assay for IDH1 R132H inhibitors (NADPH/aKG, resazurin detection). Format: biochemical. Particulars: Table 4A; 0.2 μg/ml IDH1 R132H, 50 minutes at room temperature; read-out: IC50 (uM), IDH1 R132H Inhibition. The procedure:
Assays were conducted in a volume of 76 μl assay buffer (150 mM NaCl, 10 mM MgCl2, 20 mM Tris pH 7.5, 0.03% bovine serum albumin) as follows in a standard 384-well plate: To 25 ul of substrate mix (8 uM NADPH, 2 mM aKG), 1 μl of test compound was added in DMSO. The plate was centrifuged briefly, and then 25 μl of enzyme mix was added (0.2 μg/ml IDH1 R132H) followed by a brief centrifugation and shake at 100 RPM. The reaction was incubated for 50 minutes at room temperature, then 25 μl of detection mix (30 μM resazurin, […]) was added and the mixture further incubated for 5 minutes at room temperature. The conversion of resazurin to resorufin was detected by fluorescent spectroscopy at Ex544 Em590 c/o 590.
The compounds of Formula I set forth in Table 1 and the compounds set forth in Table 2 were tested in this assay and the results set forth below in Table 4A and 4B.
With `Cc1ccccc1[C@@H](C(=O)NC1CCCCC1)N(C(=O)Cc1cccs1)c1cccc(F)c1` (single isomer, unassigned) [Compound 54], the IC50 was not above 0.1 µM.
For `COc1cccc(N(C(=O)Cc2cccs2)C(C(=O)NC2CCCC2)c2ccccc2)c1` (centres unmarked) [Compound 1], the IC50 lay within 0.1 to 1 µM.
For `O=C(NC1CCCC1)C(c1ccccc1Cl)N(C(=O)Cc1cccs1)c1ccccc1F` (centres unmarked) [Compound 2] the value was 0.1 to 1 µM; for `COc1cccc(N(C(=O)Cc2cccs2)C(C(=O)NC2CCCC2)c2ccccc2Cl)c1` (centres unmarked) [Compound 3], 0.1 to 1 µM; for `O=C(NC1CCCCC1)C(c1ccccc1Cl)N(C(=O)c1ccccn1)c1ccccc1` (centres unmarked) [Compound 4], 0.1 to 1 µM.
The result for `Cc1ccccc1C(C(=O)NC1CCCC1)N(C(=O)Cn1nnc2ccccc21)c1ccccc1F` (centres unmarked) [Compound 5] reads 0.1 to 1 µM; that for `O=C(NC1CCCC1)C(c1ccccc1F)N(C(=O)Cc1cccs1)c1ccc2c(c1)OCO2` (centres unmarked) [Compound 6], 0.1 to 1 µM; that for `Cc1ccc(N(C(=O)c2ccccn2)C(C(=O)NC2CCCCC2)c2ccccc2)cc1F` (centres unmarked) [Compound 7], 1 to 10 µM.
Consider `Cc1ccccc1C(C(=O)NC1CCCC1)N(C(=O)Cc1cccs1)c1cccc(F)c1` (centres unmarked) [Compound 8], for which the IC50 was not above 0.1 µM.
On to `Cc1ccc(N(C(=O)c2sc(C)nc2C)C(C(=O)NC2CCCC2)c2ccccc2)cc1` (centres unmarked) [Compound 9], for which the IC50 is 1 to 10 µM.
For `O=C(NC1CCCCC1)C(c1ccccc1F)N(C(=O)CNS(=O)(=O)c1ccccc1)c1ccccc1F` (centres unmarked) [Compound 10], the IC50 was 0.1 to 1 µM.
As for `CC(C)(C)NC(=O)C(c1ccccc1)N(C(=O)Cc1cccs1)c1ccccc1` (centres unmarked) [Compound 11], the IC50 was in the range of 1 to 10 µM.
For `CC(C(=O)NCc1ccccc1)(c1cccc(F)c1)N(C(=O)Cc1cccs1)c1ccccc1` (centres unmarked) [Compound 12] the value was 10 to 100 µM; for `Cc1ccccc1N(C(=O)Cc1cccs1)C(C(=O)NC1CCCCC1)c1cccc(F)c1` (centres unmarked) [Compound 13], 0.1 to 1 µM; for `Cc1ccccc1N(C(=O)Cc1cccs1)C(C(=O)NC(C)(C)C)c1cccc(F)c1` (centres unmarked) [Compound 14], 10 to 100 µM.
With `Cc1ccccc1C(C(=O)NC1CCCCC1)N(C(=O)Cc1cccs1)c1cccc(F)c1` (centres unmarked) [Compound 15], the IC50 is not above 0.1 µM.
In the case of `CC(C)C(C(=O)NC1CCCC1)N(C(=O)Cc1cccs1)c1cccc(F)c1` (centres unmarked) [Compound 16], the IC50 is not below 100 µM.
The result for `O=C(NC1CCCC1)C(c1ccccc1)N(C(=O)Cc1cccs1)c1ccccc1` (centres unmarked) [Compound 17] reads 0.1 to 1 µM; that for `CCC(C(=O)NC1CCCC1)N(C(=O)Cc1cccs1)c1cccc(F)c1` (centres unmarked) [Compound 18], not below 100 µM; that for `COc1ccc(C(C(=O)NC2CCCC2)N(C(=O)Cc2cccs2)c2cccc(F)c2)cc1OC` (centres unmarked) [Compound 19], not below 100 µM.
For `O=C(NC1CCCC1)C(c1cccc([N+](=O)[O-])c1)N(C(=O)Cc1cccs1)c1cccc(F)c1` (centres unmarked) [Compound 20] the value was not below 100 µM; for `CC(C)(C(=O)NC1CCCC1)N(C(=O)Cc1cccs1)c1cccc(F)c1` [Compound 21], not below 100 µM.
For the molecule `O=C(Cc1cccs1)N(c1cccc(F)c1)C1(C(=O)NC2CCCC2)CCC1` [Compound 22], the IC50 is not below 100 µM.
As to `O=C(Cc1cccs1)N(c1cccc(F)c1)C1(C(=O)NC2CCCC2)CCCC1` [Compound 23], the IC50 was 10 to 100 µM.
As for `O=C(Cc1cccs1)N(c1cccc(F)c1)C1(C(=O)NC2CCCC2)CCCCC1` [Compound 24], the IC50 lay in the range of 1 to 10 µM.
For `N#Cc1ccc(C(C(=O)NC2CCCC2)N(C(=O)Cc2cccs2)c2cccc(F)c2)cc1` (centres unmarked) [Compound 25] the value was not below 100 µM.
The result for `COc1ccccc1C(C(=O)NC1CCCC1)N(C(=O)Cc1cccs1)c1cccc(F)c1` (centres unmarked) [Compound 26] reads 0.1 to 1 µM; that for `O=C(NC1CCCC1)C(c1ccc(C(F)(F)F)cc1)N(C(=O)Cc1cccs1)c1cccc(F)c1` (centres unmarked) [Compound 27], not below 100 µM.
For `Cc1ccccc1C(C(=O)NC1CCCC1)N(C(=O)CNS(=O)(=O)c1ccccc1)c1cccc(F)c1` (centres unmarked) [Compound 28] the value was 0.1 to 1 µM; for `Cc1ccccc1C(C(=O)NC1CCCCC1)N(C(=O)CNS(=O)(=O)c1ccccc1)c1cccc(F)c1` (centres unmarked) [Compound 29], 0.1 to 1 µM; for `O=C(NC1CCCCC1)C(c1ccccc1)N(C(=O)Cc1cccs1)c1cccc(F)c1` (centres unmarked) [Compound 30], 0.1 to 1 µM.
`O=C(NC1CCCCC1)C(c1ccccc1Cl)N(C(=O)Cc1cccs1)c1cccc(F)c1` (centres unmarked) [Compound 31]: the IC50 was not above 0.1 µM.
For `Cc1ccccc1C(C(=O)NC1CCCCC1)N(C(=O)c1ccccn1)c1cccc(F)c1` (centres unmarked) [Compound 32] the value was 1 to 10 µM; for `O=C(NC1CCCCC1)C(c1ccccc1F)N(C(=O)c1ccccn1)c1cccc(F)c1` (centres unmarked) [Compound 33], 0.1 to 1 µM.
As to `O=C(NC1CCCCC1)C(c1ccccc1F)N(C(=O)Cc1cccs1)c1cccc(F)c1` (centres unmarked) [Compound 34], the IC50 is not above 0.1 µM.
The result for `O=C(NC1CCCCC1)C(c1ccccc1Cl)N(C(=O)Cc1cccs1)c1ccccc1F` (centres unmarked) [Compound 35] reads 0.1 to 1 µM; that for `O=C(NC1CCCCC1)C(c1ccccc1)N(C(=O)Cc1cccs1)c1ccccc1F` (centres unmarked) [Compound 36], 0.1 to 1 µM.
As to `O=C(NC1CCCCC1)C(c1ccccc1F)N(Cc1cccs1)C(=O)c1ccccn1` (centres unmarked) [Compound 37], the IC50 fell in the range of 10 to 100 µM.
On to `O=C(NC1CCCCC1)C(c1ccccc1F)N(Cc1cccs1)C(=O)Cc1cccs1` (centres unmarked) [Compound 38], for which the IC50 lay in the range of 1 to 10 µM.
The result for `Cc1ccccc1C(C(=O)NC1CCCCC1)N(C(=O)Cc1cccs1)c1ccccc1F` (centres unmarked) [Compound 39] reads 0.1 to 1 µM; that for `Cc1ccccc1C(C(=O)NC1CCCCC1)N(C)C(=O)Cc1cccs1` (centres unmarked) [Compound 40], not below 100 µM; that for `Cc1ccccc1C(C(=O)NC1CCCCC1)N(C(=O)Cc1cccs1)C(C)C` (centres unmarked) [Compound 41], 10 to 100 µM.
The result for `Cc1ccccc1C(C(=O)NC1CCCCC1)N(C(=O)Cc1cccs1)c1ccccc1` (centres unmarked) [Compound 42] reads 0.1 to 1 µM; that for `O=C(NC1CCCC1)C(c1ccccc1F)N(C(=O)Cc1cccs1)c1cccc(F)c1` (centres unmarked) [Compound 43], 0.1 to 1 µM; that for `O=C(NC1CCCC1)C(c1ccccc1Cl)N(C(=O)Cc1cccs1)c1cccc(F)c1` (centres unmarked) [Compound 44], not above 0.1 µM.
Consider `O=C(NC1CCCC1)C(c1ccccc1)N(C(=O)Cc1cccs1)c1cccc(F)c1` (centres unmarked) [Compound 45], for which the IC50 lay in the range of 0.1 to 1 µM.
The result for `Cc1ccccc1C(C(=O)NC1CCCC1)N(C(=O)Cc1cccs1)c1ccccc1F` (centres unmarked) [Compound 46] reads 0.1 to 1 µM.
Turning to `O=C(NC1CCCC1)C(c1ccccc1F)N(C(=O)Cc1cccs1)c1ccccc1F` (centres unmarked) [Compound 47], the IC50 was in the range of 0.1 to 1 µM.
Consider `O=C(NC1CCCC1)C(c1ccccc1)N(C(=O)Cc1cccs1)c1ccccc1F` (centres unmarked) [Compound 48], for which the IC50 lay within 0.1 to 1 µM.
On to `COc1cccc(C(C(=O)NC2CCCCC2)N(C(=O)Cc2cccs2)c2cccc(F)c2)c1` (centres unmarked) [Compound 49], for which the IC50 lay in the range of 0.1 to 1 µM.
As to `O=C(NC1CCCCC1)C(c1ccc(F)cc1)N(C(=O)Cc1cccs1)c1cccc(F)c1` (centres unmarked) [Compound 50], the IC50 was in the range of 0.1 to 1 µM.
The result for `Cc1ccsc1C(C(=O)NC1CCCCC1)N(C(=O)Cc1cccs1)c1cccc(F)c1` (centres unmarked) [Compound 51] reads 0.1 to 1 µM.
On to `CCOc1cc(C(C(=O)NC2CCCCC2)N(C(=O)Cc2cccs2)c2cccc(F)c2)ccc1OC` (centres unmarked) [Compound 52], for which the concentration for half-maximal inhibition (IC50) was not below 100 µM.
For the molecule `Cc1ccccc1[C@H](C(=O)NC1CCCCC1)N(C(=O)Cc1cccs1)c1cccc(F)c1` [Compound 53], the IC50 lay within 1 to 10 µM.
As for `O=C(NC1CCCCC1)C(c1ccccc1)N(C(=O)c1ccccn1)c1cccc(F)c1` (centres unmarked) [Compound 55], the IC50 is 1 to 10 µM.
In the case of `O=C(NC1CCCCC1)C(c1ccccc1Cl)N(C(=O)c1ccccn1)c1cccc(F)c1` (centres unmarked) [Compound 56], the IC50 was 0.1 to 1 µM.
With `O=C(NC1CCCCC1)C(c1ccccc1Cl)N(C(=O)c1ccccn1)c1ccccc1F` (centres unmarked) [Compound 57], the IC50 was in the range of 1 to 10 µM.
Take `O=C(NC1CCCCC1)C(c1ccccc1)N(C(=O)c1ccccn1)c1ccccc1F` (centres unmarked) [Compound 58]: the IC50 lay in the range of 1 to 10 µM.
In the case of `Cc1ccccc1C(C(=O)NC1CCCCC1)N(C(=O)c1ccccn1)c1ccccc1F` (centres unmarked) [Compound 59], the IC50 was 1 to 10 µM.
With `O=C(NC1CCCCC1)C(c1ccccc1F)N(C(=O)c1ccccn1)c1ccccc1F` (centres unmarked) [Compound 60], the IC50 was in the range of 0.1 to 1 µM.
As for `O=C(NC1CCCCC1)C(C1CCCC1)N(C(=O)Cc1cccs1)c1cccc(F)c1` (centres unmarked) [Compound 61], the half-inhibitory concentration (IC50) lay within 1 to 10 µM.
`O=C(NC1CCCCC1)C(c1ccccc1[N+](=O)[O-])N(C(=O)Cc1cccs1)c1cccc(F)c1` (centres unmarked) [Compound 62]: the IC50 fell in the range of 0.1 to 1 µM.
Regarding `O=C(NC1CCCCC1)C(C1CCCCC1)N(C(=O)Cc1cccs1)c1cccc(F)c1` (centres unmarked) [Compound 63], the IC50 was 1 to 10 µM.
Take `CCOc1ccccc1C(C(=O)NC1CCCCC1)N(C(=O)Cc1cccs1)c1cccc(F)c1` (centres unmarked) [Compound 64]: the IC50 lay within 1 to 10 µM.
On to `CCc1ccccc1C(C(=O)NC1CCCCC1)N(C(=O)Cc1cccs1)c1cccc(F)c1` (centres unmarked) [Compound 65], for which the IC50 was in the range of 0.1 to 1 µM.
With `O=C(NC1CCCCC1)C(c1ccc(-c2ccccc2)cc1)N(C(=O)Cc1cccs1)c1cccc(F)c1` (centres unmarked) [Compound 66], the IC50 is not below 100 µM.
As to `O=C(NC1CCCCC1)C(c1ccccc1O)N(C(=O)Cc1cccs1)c1cccc(F)c1` (centres unmarked) [Compound 67], the IC50 lay within 0.1 to 1 µM.
For `O=C(NC1CCCCC1)C(c1ccc(Br)cc1)N(C(=O)Cc1cccs1)c1cccc(F)c1` (centres unmarked) [Compound 68], the 50% inhibitory concentration (IC50) is not below 100 µM.
